US20120202877A1 (priority 2009, published 2012)

test system: A/Paris/1170/2007 (H1N1, Y274); assay: microbe, parasite or virus in culture; type: cell-based; conditions: Influenza A virus, H1N1, 72 h, read-out: EC50, 50% reduction of the average plaque diameter

| Structure (SMILES) | EC50 [µM] |
| --- | --- |
| C=CCC1=C(C(=O)O)O[C@@H]([C@H](O)[C@H](O)CO)[C@H](NC(C)=O)[C@H]1O [Compound 7, 5-Acetamido-2,6-anhydro-3,5-dideoxy-3-C-(prop-2′-enyl)-D-glycero-D-galacto-non-2-en-onic acid] | 2200 |
| CC(=O)NC1C(O)C(CC=Cc2ccc(C)cc2)=C(C(=O)O)OC1C(O)C(O)CO (stereo not drawn) [Compound 9d] | 40 |
| CC(=O)N[C@H]1[C@H]([C@H](O)[C@H](O)CO)OC(C(=O)O)=C[C@@H]1O [Neu5Ac2en, reference compound] | 8 |
